Test results taken from PMC7011974, “Benzimidazole derivatives endowed with potent antileishmanial activity” (Journal of Enzyme Inhibition and Medicinal Chemistry, 2017).
Like-named read-outs stand apart in the source and are kept apart here.

Assays:
[1] = tested on: L. tropica promastigotes; assay: Antileishmanial activity on L. tropica promastigotes (MTT); type: cell-based, Leishmania tropica; conditions: for IC50: 72 h, read-out: IC50 (µM) L. tropica
[2] = tested on: L. infantum promastigotes; assay: Antileishmanial activity on L. infantum promastigotes (MTT); type: cell-based, Leishmania infantum; conditions: for IC50: Leishmania infantum, 72 h, read-out: IC50 (µM) L. infantum
[3] = tested on: human microvascular endothelial cell line (HMEC-1); assay: Cytotoxicity on HMEC-1 cells (MTT); type: cell-based; conditions: for IC50: cytotoxicity, HMEC-1 cells, MTT; for SI L. infantum (IC50 HMEC-1/IC50 L. infantum) / SI L. tropica (IC50 HMEC-1/IC50 L. tropica): selectivity index
[4] = Leishmania tropica, promastigotes, MTT, starred values mean of two experiments
[5] = fold potency versus miltefosine
[6] = percent of amphotericin B potency, calculated for each experiment
[7] = promastigotes of L. tropica and/or L. infantum
[8] = promastigotes, MTT, starred values mean of two experiments

SMILES	IC50 [1, 4]	Ratio IC50 miltef./IC50 compd., L. tropica [1, 5]	IC50 amph. B ×100/IC50 compd., L. tropica [1, 6]	IC50 ([2]; promastigotes, MTT)	Ratio IC50 miltef./IC50 compd., L. infantum [2, 5]	IC50 amph. B ×100/IC50 compd., L. infantum [2, 6]	IC50 ([3]; Homo sapiens)	SI L. infantum (IC50 HMEC-1/IC50 L. infantum) [3]	SI L. tropica (IC50 HMEC-1/IC50 L. tropica) [3]	melting point	further results
CCCCCCCCCCCCCCCc1n(Cc2ccccc2)c2ccccc2[n+]1Cc1ccccc1.[Cl-] [Compound 15, 1,3-Dibenzyl-2-pentadecyl-1 H-benzimidazol-3-ium chloride]	1.61 ± 0.15 µM	26.9	5.1	3.26 ± 0.8 µM	9.6	2.9	0.94 ± 0.17 µM	0.29	0.60	214.9 to 216.3 °C	–
CCCCCCCCCCCCCCCc1n(C)c2cc(Cl)c(Cl)cc2[n+]1C.[I-] [Compound 11, 5,6-Dichloro-1,3-dimethyl-2-pentadecyl-1 H-benzimidazol-3-ium iodide]	1.06 ± 0.54 µM	40.8	9.1	0.84 ± 0.13 µM	37.2	14.1	1.68 ± 0.75 µM	2.00	1.58	200 to 203 °C	–
C[n+]1c(-c2ccc(Cl)cc2)n(C[C@@H]2CCC[N+]3(C)CCCC[C@H]23)c2ccc(C(F)(F)F)cc21 (stereo partly drawn) [Compound 39, 2-(4-Chlorophenyl)-3-methyl-1-{[5-methylammonio-(1 S,9aR)-octahydroquinolizin-1-yl]-methyl}-5-trifluoromethyl-1 H-benzimidazol-3-ium diiodide]	> 27 µM	–	–	> 27 µM	–	–	–	–	–	165 to 169 °C	Antileishmanial activity in words [1, 7]: inactive
Cn1c(Cc2ccc(Cl)cc2)[n+](C)c2cc(C(F)(F)F)ccc21.[I-] [Compound 22, 2-(4-Chlorobenzyl)-1,3-dimethyl-5-trifluoromethyl-1 H-benzimidazol-3-ium iodide]	33.9 ± 12.6 µM	1.3	0.30	16.7 ± 7.07 µM	1.9	0.70	–	–	–	60 °C	–
CCCCCCCCCCCc1nc2ccccc2n1C [Compound 2, 1-Methyl-2-undecyl-1H-benzimidazole]	–	–	–	–	–	–	–	–	–	40.8 to 43.4 °C	–
CCCCCCCCCCCCCCCc1n(C)c2ccc(C(F)(F)F)cc2[n+]1C.[I-] [Compound 9, 1,3-Dimethyl-2-pentadecyl-5-trifluoromethyl-1 H-benzimidazol-3-ium iodide]	0.87 ± 0.16 µM	49.7	11.9	1.32 ± 0.3 µM	23.7	8.9	1.86 ± 0.34 µM	1.41	2.14	116 to 118 °C	–
CCCCCCCCCCCc1nc2ccccc2[nH]1 [Compound 1, 2-Undecyl-1 H-benzimidazole]	> 16.2 µM	–	–	–	–	–	51 ± 7.5 µM	–	–	108.1 to 109.3 °C	Antileishmanial activity in words [1, 7]: inactive
CCCC(CCC)c1n(C)c2ccccc2[n+]1C.[I-] [Compound 20, 1,3-Dimethyl-2-(heptan-4-yl)-1 H-benzimidazol-3-ium iodide]	> 73 µM	–	–	–	–	–	> 73 µM	–	–	192.2 to 192.9 °C	Antileishmanial activity in words [1, 7]: inactive
CCCCCCCCCCCCCCCc1n(C)c2ccc([N+](=O)[O-])cc2[n+]1C.[I-] [Compound 10, 1,3-Dimethyl-5-nitro-2-pentadecyl-1 H-benzimidazol-3-ium iodide]	1.4 ± 0.58 µM	30.9	7.35	0.96 ± 0.17 µM	32.6	12.3	2.11 ± 0.45 µM	2.20	1.51	154 to 156 °C	–
CCCCCCCCCCCc1n(Cc2ccccc2)c2ccccc2[n+]1Cc1ccccc1.[Cl-] [Compound 5, 1,3-Dibenzyl-2-undecyl-1H-benzimidazol-3-ium chloride]	0.78 µM	55.5	10.5	0.61 ± 0.05 µM	51.3	25.6	1.38 ± 0.17 µM	2.26	1.77	223.3 to 225.3 °C	–
COc1ccc(Cc2nc3cc(C(C)=O)ccc3n2C[C@@H]2CCCN3CCCC[C@H]23)cc1 [Compound 31]	–	–	–	–	–	–	–	–	–	–	IC50 amph. B ×100/IC50 compd., L. tropica [1]: 0.74; Ratio IC50 miltef./IC50 compd., L. tropica [1]: 1.8; IC50 ([1]; Leishmania tropica): 23.9 ± 7.78 µM; IC50 amph. B ×100/IC50 compd., L. infantum [2]: 0.73; Ratio IC50 miltef./IC50 compd., L. infantum [2]: 1.1; IC50 [2]: 28.5 ± 4.47 µM
CCCCCCCCCCCCCCCc1nc2ccccc2n1C [Compound 7, 1-Methyl-2-pentadecyl-1H-benzimidazole]	> 58 µM	–	–	> 58 µM	–	–	–	–	–	64.2 to 65.6 °C	Antileishmanial activity in words [1, 7]: inactive
CCCCCCCCCCCCCCCc1n(C)c2ccccc2[n+]1CCC.[I-] [Compound 12, 1-Methyl-2-pentadecyl-3-propyl-1H-benzimidazol-3-ium iodide]	0.51 µM	84.8	16.1	0.42 ± 0.14 µM	74.4	37.1	0.73 ± 0.37 µM	1.74	1.43	144.7 to 147.4 °C	–
CCCC(CCC)c1nc2ccccc2n1C [Compound 19, 2-(Heptan-4-yl)-1-methyl-1 H-benzimidazole]	30 ± 10.3 µM	1.4	0.40	–	–	–	> 74 µM	–	>2.43	–	–
CCCCCCCCCCCCCCCc1nc2ccccc2n1Cc1ccccc1 [Compound 13, 1-Benzyl-2-pentadecyl-1H-benzimidazole]	> 11.9 µM	–	–	> 11.9 µM	–	–	> 47 µM	–	–	60.7 to 61.8 °C	Antileishmanial activity in words [1, 7]: inactive
CCCCCCCCCCCCCCCc1nc2ccccc2n1C[c-]1cccc1.[Fe+2].c1cc[cH-]c1 [Compound 16, 1-(Ferrocenylmethyl)-2-pentadecyl-1 H-benzimidazole]	–	–	–	–	–	–	–	–	–	–	Antileishmanial activity in words [1, 7]: inactive; IC50 [1, 8]: > 35 µM; IC50 [3]: > 35 µM
Cn1c(Cc2ccc(Cl)cc2)[n+](C)c2ccccc21.[I-] [Compound 21, 2-(4-Chlorobenzyl)-1,3-dimethyl-1 H-benzimidazol-3-ium iodide]	> 50 µM	–	–	> 50 µM	–	–	–	–	–	94 to 98 °C	Antileishmanial activity in words [1, 7]: inactive
CCCCCCCCCCCCCCCc1n(C[c-]2cccc2)c2ccccc2[n+]1C.[Fe+2].[I-].c1cc[cH-]c1 [Compound 17, 1-(Ferrocenylmethyl)-3-methyl-2-pentadecyl-1 H-benzimidazol-3-ium iodide]	–	12.2	3.34	–	–	–	–	–	0.35	–	IC50 [1, 8]: 3.56 ± 0.84 µM; IC50 [3]: 1.26 ± 0.24 µM
CCCC(CCC)c1nc2ccccc2[nH]1 [Compound 18, 2-(Heptan-4-yl)-1 H-benzimidazole]	11.1 ± 2.73 µM	3.9	1.07	> 39.6 µM	–	–	65.1 ± 12.2 µM	–	5.87	224.7 to 225.8 °C	–
CCCCCCCCCCCCCCCc1n(C)c2ccccc2[n+]1Cc1ccccc1.[Cl-] [Compound 14, 3-Benzyl-1-methyl-2-pentadecyl-1 H-benzimidazol-3-ium chloride]	0.49 µM	88.3	16.7	0.64 ± 0.01 µM	48.8	24.4	0.91 ± 0.19 µM	1.42	1.86	215.7 to 219.3 °C	–
CC(=O)c1ccc2c(c1)nc(Cc1ccccc1)n2C[C@@H]1CCCN2CCCC[C@H]12 [Compound 29]	23.7 ± 8.54 µM	1.8	0.75	28.5 ± 8.66 µM	1.1	0.73	–	–	–	–	–
CCCCCCCCCCCc1n(C)c2ccccc2[n+]1C.[I-] [Compound 3, 1,3-Dimethyl-2-undecyl-1 H-benzimidazol-3-ium iodide]	1.68 µM	25.8	4.9	0.28 ± 0.07 µM	111.6	55.7	2.64 ± 0.49 µM	9.43	1.57	157.3 to 161.3 °C	–
CCCCCCCCCCCCCCCc1nc2ccccc2[nH]1 [Compound 6, 2-Pentadecyl-1 H-benzimidazole]	5.05 ± 0.01 µM	8.6	1.6	10.1 ± 4.9 µM	3.1	0.93	> 37 µM	–	–	88.8 to 94.2 °C	–
CCN(CC)CCCn1c(Cc2ccc(OC)cc2)nc2cc(C(C)=O)ccc21 [Compound 25]	–	–	–	–	–	–	–	–	–	–	Antileishmanial activity in words [1]: inactive; IC50 ([1]; Leishmania tropica): > 51 µM; IC50 [2]: > 51 µM
